US20240384268A1, “Oligonucleotides” (Hudson Institute of Medical Research, priority 2021, published 2024)

Target: T1, human TLR9 (Homo sapiens, UniProt Q9NR96)
T1 construct: HA; host or cells: 293XL-hTLR9-HA (HEK293)
T1 sequence (Q9NR96 26-1032): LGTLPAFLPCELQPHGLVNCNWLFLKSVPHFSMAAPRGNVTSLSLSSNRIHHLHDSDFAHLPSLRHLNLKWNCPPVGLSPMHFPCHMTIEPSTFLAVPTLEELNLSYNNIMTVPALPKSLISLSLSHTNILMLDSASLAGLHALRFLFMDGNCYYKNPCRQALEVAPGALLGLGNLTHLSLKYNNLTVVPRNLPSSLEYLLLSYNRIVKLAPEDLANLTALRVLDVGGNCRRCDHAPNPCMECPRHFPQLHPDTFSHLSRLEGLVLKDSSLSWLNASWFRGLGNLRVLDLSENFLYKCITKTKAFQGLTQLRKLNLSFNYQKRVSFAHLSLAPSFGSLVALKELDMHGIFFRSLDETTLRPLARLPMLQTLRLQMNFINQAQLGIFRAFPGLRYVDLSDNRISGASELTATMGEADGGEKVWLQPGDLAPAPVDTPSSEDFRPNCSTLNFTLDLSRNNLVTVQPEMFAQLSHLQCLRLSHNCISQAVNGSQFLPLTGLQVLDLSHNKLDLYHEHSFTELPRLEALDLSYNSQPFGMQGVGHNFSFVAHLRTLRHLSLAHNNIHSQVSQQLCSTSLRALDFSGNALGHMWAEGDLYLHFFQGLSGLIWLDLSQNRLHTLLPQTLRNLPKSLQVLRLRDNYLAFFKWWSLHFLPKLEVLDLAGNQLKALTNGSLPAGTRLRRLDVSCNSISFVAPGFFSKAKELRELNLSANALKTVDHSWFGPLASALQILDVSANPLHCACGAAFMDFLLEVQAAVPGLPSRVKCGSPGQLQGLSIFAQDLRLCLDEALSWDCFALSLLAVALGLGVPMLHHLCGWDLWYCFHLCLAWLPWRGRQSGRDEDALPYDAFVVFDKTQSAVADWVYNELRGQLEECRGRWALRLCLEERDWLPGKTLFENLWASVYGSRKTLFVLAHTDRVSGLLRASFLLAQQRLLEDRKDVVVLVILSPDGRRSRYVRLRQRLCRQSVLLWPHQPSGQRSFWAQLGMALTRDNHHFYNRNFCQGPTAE
Assay: HEK-TLR9 NF-κB-luciferase reporter, ODN2006 stimulation
Assay type: cell-based
Conditions: relative to ODN2006 only, given as fraction; for TLR9 100 nM (averaged NF-κB-Luciferase level relative to ODN2006 condition): ASO 100 nM; for TLR9 500 nM (averaged NF-κB-Luciferase level relative to ODN2006 condition): ASO 500 nM

Row | Sequence | TLR9 100 nM (averaged NF-κB-Luciferase level relative to ODN2006 condition) | TLR9 500 nM (averaged NF-κB-Luciferase level relative to ODN2006 condition)
1 | CTTCGTGGGGTCCTTT (antisense; LNA-modified, pattern not given here) [HPRT LNA-662 V1] | 0.557 | 0.240
2 | CTTGAAGCATCGTATC (antisense; LNA-modified, pattern not given here) [CTNN2B-3648 LNA KL] | 0.899 | 0.483
3 | CTTGGCTTCGTGGAGC (antisense; LNA-modified, pattern not given here) [MB21D1-520 LNA V1] | 0.596 | 0.371
4 | GAAAGGTTATGCAAGG (antisense; LNA-modified, pattern not given here) [CTNN2B-916 LNA KL] | 0.748 | 0.606
5 | GACTATACGCGCAATA (antisense; LNA-modified, pattern not given here) [NC5 LNA PS 3-10-3] | 0.784 | 0.403
6 | GAGGTCTTGGCTTCGT (antisense; LNA-modified, pattern not given here) [MB21D1-525 LNA V1] | 0.897 | 0.224
7 | GATGGCCTCCCATCTC (antisense; LNA-modified, pattern not given here) [HPRT LNA-331 V1] | 1.033 | 0.476
8 | GCACACTTCGTACCCA (antisense; LNA-modified, pattern not given here) [CAMSAP1-4915 LNA V1] | 0.683 | 0.147
9 | GCACTTCAGTCTGAGC (antisense; LNA-modified, pattern not given here) [MB21D1-719 LNA KL] | 0.673 | 0.144
10 | GGAGGTCTTGGCTTCG (antisense; LNA-modified, pattern not given here) [MB21D1-526 LNA V1] | 0.912 | 0.674
11 | GGCACTTTGCCTCCTT (antisense; LNA-modified, pattern not given here) [EGFR-2859 LNA V1] | 1.092 | 0.788
12 | GGCTCGGCTTGCCTAC (antisense; LNA-modified, pattern not given here) [CAMSAP1-5594 LNA V1] | 0.714 | 0.350
13 | GGTCATTACAATAGCT (antisense; LNA-modified, pattern not given here) [HPRT LNA-475 KL] | 0.438 | 0.604
14 | GGTCTTGGCTTCGTGG (antisense; LNA-modified, pattern not given here) [MB21D1-523 LNA V1] | 0.658 | 0.417
15 | GTCAAGGGCATATCCT (antisense; LNA-modified, pattern not given here) [HPRT LNA-732 KL] | 0.844 | 0.387
16 | GTCCTTGCACGTGGCT (antisense; LNA-modified, pattern not given here) [EGFR-1015 LNA V1] | 1.310 | 0.722
17 | GTCTCTGGAGCTTCCT (antisense; LNA-modified, pattern not given here) [CAMSAP1-2456 LNA V1] | 0.935 | 0.272
18 | GTCTTCATCGGCCCTG (antisense; LNA-modified, pattern not given here) [CAMSAP1-2113 LNA V1] | 0.797 | 0.617

Row | Sequence | TLR9 100 nM (averaged NF-κB-Luciferase level relative to ODN2006 condition) | TLR9 500 nM (averaged NF-κB-Luciferase level relative to ODN2006 condition)
19 | GTGATCTTGACATGCT (antisense; LNA-modified, pattern not given here) [EGFR-2790 LNA KL] | 1.001 | 0.181
20 | GTGATGGCCTCCCATC (antisense; LNA-modified, pattern not given here) [HPRT LNA-333 V1] | 0.890 | 0.694
21 | TACTTTCCGAGGTGTC (antisense; LNA-modified, pattern not given here) [CAMSAP1-1739 LNA KL] | 0.915 | 0.356
22 | TCCACAATCAAGACAT (antisense; LNA-modified, pattern not given here) [HPRT LNA-551 KL] | 0.851 | 0.308
23 | TCCATACCCAAGGCAT (antisense; LNA-modified, pattern not given here) [CTNN2B-2446 LNA V1] | 1.075 | 0.951
24 | TCCGCCCAAAGGGAAC (antisense; LNA-modified, pattern not given here) [HPRT LNA-1027 KL] | 0.876 | 0.599
25 | TCCTTGCACGTGGCTT (antisense; LNA-modified, pattern not given here) [EGFR-1014 LNA V1] | 1.152 | 1.027
26 | TCGTGGGGTCCTTTTC (antisense; LNA-modified, pattern not given here) [HPRT LNA-660 V1] | 0.461 | 0.462
27 | TCTTCATCGGCCCTGC (antisense; LNA-modified, pattern not given here) [CAMSAP1-2112 LNA V1] | 0.921 | 0.445
28 | TCTTGGCTTCGTGGAG (antisense; LNA-modified, pattern not given here) [MB21D1-521 LNA V1] | 1.251 | 0.595
29 | TGACAAAGATTCACTG (antisense; LNA-modified, pattern not given here) [HPRT LNA-1353 KL] | 0.819 | 0.574
30 | TGACTGTCTTGAGGGT (antisense; LNA-modified, pattern not given here) [MB21D1-1483 LNA KL] | 1.245 | 0.290
31 | TGCTCCTCGGTCTCCC (antisense; LNA-modified, pattern not given here) [CAMSAP1-1850 LNA V1] | 0.548 | 0.535
32 | TGGTCCACAACCCCTT (antisense; LNA-modified, pattern not given here) [MB21D1-697 LNA V1] | 1.018 | 0.587
33 | TGGTGGCCACCCATCT (antisense; LNA-modified, pattern not given here) [CTNN2B-2479 LNA V1] | 1.136 | 1.117
34 | TGTCCTTGCACGTGGC (antisense; LNA-modified, pattern not given here) [EGFR-1016 LNA V1] | 1.020 | 0.853
35 | TGTCTGGAAGCTTCCT (antisense; LNA-modified, pattern not given here) [CTNN2B-808 LNA V1] | 1.320 | 0.648
